Test results published in PubChem BioAssay AID2060483 (Molecular Pharmacology Branch, DTP, NCI, 2025).

Test system: K24384-001-R-PDC complex spheroids, viability
Assay: Anticancer human tumor K24384-001-R-PDC patient-derived pancreatic adenocarcinoma cell line growth inhibition [GQUAD]
Conditions: for IC50: curve of first compound; for viability, T/C: stronger effect = lower value
Description: DNA G-quadruplex Stabilizer Agents in Combinations in Complex Spheroids
A high-throughput screen of multi-cell type tumor spheroids was designed to identify active combinations of DNA G-quadruplex stabilizer agents and targeted small molecules. Complex spheroids include a stromal component modeled by human endothelial cells (HUVEC) and fibroblasts modeled by human mesenchymal stem cells (MSCs). The concentration ranges selected for each drug and investigational agent were based upon clinically achievable concentrations if the clinical Cmax of the agent was known.
Compounds. The drugs and investigational agents: pidnarulex (CX-5461; NSC782164), APTO-253 (NSC789042), BRACO-19 (NSC847499), peposertib (NSC802822), ceralasertib (NSC780249), elimusertib (NSC800525), camonsertib (NSC841442), AZD-1390 (NSC803789), olaparib (NSC753686), talazoparib (NSC767125), ART-558 (NSC835418), sotorasib (NSC818433), MRTX-1133 (NSC836407), SN-38 (NSC673596), topotecan (NSC609699), etoposide (NSC141540), doxorubicin (NSC123127), gemcitabine (NSC613327), 5-fluorouracil (NSC19893), paclitaxel (NSC125973), vemurafenib (NSC761431), panobinostat (NSC761190), R-306465 (JNJ-16241199; NSC773264), adavosertib (NSC754352), TP-3654 (NSC805149), carboplatin (NSC241240), KSQ-4279 (NSC840948), and staurosporine (NSC755774) were obtained from the National Cancer Institute (NCI) Developmental Therapeutics Program Chemical Repository (34). The FDA-approved anticancer drug set is available from the NCI Developmental Therapeutics Program. […] The stock solutions were prepared in dimethyl sulfoxide (DMSO, Sigma-Aldrich, St. Louis, MO, cat. D2650) at 800-fold the tested concentration and stored at -70 degrees C prior to their use. All drugs and investigational agents were tested over a range starting from a high concentration at or near the clinical Cmax and decreasing in half-log increments. If the clinical Cmax for an agent had not been determined, the highest concentration tested was 10 microM.
2.3 Cell Culture. All cells were maintained in an incubator at 37 degrees C and 5% CO2 with 95% humidity. The PDC lines were cultured according to standard operating procedures established by the NCI PDMR. All PDCs were thawed and cultured in Matrigel-coated flasks prepared with a working solution of 1X Ham's F-12 nutrient mix, without supplementation (Invitrogen, cat. 11765054), 100 U/mL penicillin-streptomycin (Invitrogen, cat. 15140122), and 2.5% Matrigel (Corning Inc., cat. 354248) for the first three passages. The 857933-349-R-J2-PDC line was cultured in 6C/Colon 1B media, which includes advanced DMEM/F-12 (Thermo Fisher Scientific, cat. 12634028), 10 mM HEPES (Thermo Fisher Scientific, cat. 15630080), 1X GlutaMAX supplement (Thermo Fisher Scientific, cat. 35050061), 0.1 mg/mL primocin (InvivoGen, cat. ant-pm-2), 10% defined fetal bovine serum, heat inactivated (HyClone Laboratories Inc., cat. SH30070.03HI), 50% L-WRN conditioned media (ATCC, cat. CRL-3276), 1.25 mM N-Acetyl-L-cysteine (Sigma-Aldrich, cat. A9165), 10 mM nicotinamide (Sigma-Aldrich, cat. N0636), 1X B-27 supplement (Thermo Fisher Scientific, cat. 17504044), 1X N-2 supplement (Thermo Fisher Scientific, cat. 17502048), 10 microM Y-27632 dihydrochloride (Tocris Bioscience, cat. 1254), and 50 ng/mL human EGF recombinant protein (Thermo Fisher Scientific, cat. PHG0311). The 485176-168-R4-J1-PDC line was cultured in Panc media, which includes all 6C/Colon 1B media components plus 100 ng/mL human FGF-10 (Thermo Fisher Scientific, cat. 100-26), 500 nM SB-431542 (Selleckchem, cat. S1067), and gastrin (Tocris, cat. 3006).
[…]
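Also: spheroids exposed to compounds for seven days.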

Work on `CC1COCCN1c1cc(-c2ccnn2C)c2ccnc(-c3ccn[nH]3)c2n1` (configuration not stated) + Cc1cnc(CNC(=O)c2c(=O)c3ccc(N4CCCN(C)CC4)nc3n3c2sc2ccccc23)cn1 yielded an IC50 (second compound 0.0316 µM) of 0.0415 µM, an IC50 (second compound 0.1 µM) of under 0.0316 µM and an IC50 (second compound 0.316 µM) of under 0.0316 µM. For the same molecule, the IC50 (second compound 1 µM) was under 0.0316 µM, the IC50 (second compound 3.16 µM) was under 0.0316 µM and the IC50 (second compound 10 µM) was under 0.0316 µM. For the same molecule, the viability, T/C (second compound 0.0316 µM, first compound 0.0316 µM) was 53.5%, the viability, T/C (second compound 0.0316 µM, first compound 0.1 µM) was 37.8% and the viability, T/C (second compound 0.0316 µM, first compound 0.316 µM) was 40%. It also gave a viability, T/C (second compound 0.0316 µM, first compound 1 µM) of 32%, a viability, T/C (second compound 0.0316 µM, first compound 3.16 µM) of 34.6% and a viability, T/C (second compound 0.0316 µM, first compound 10 µM) of 29.9%. The viability, T/C (second compound 0.1 µM, first compound 0.0316 µM) was 48.8%, the viability, T/C (second compound 0.1 µM, first compound 0.1 µM) was 51.1% and the viability, T/C (second compound 0.1 µM, first compound 0.316 µM) was 34%. For the same molecule, the viability, T/C (second compound 0.1 µM, first compound 1 µM) was 41.5%, the viability, T/C (second compound 0.1 µM, first compound 3.16 µM) was 32.2% and the viability, T/C (second compound 0.1 µM, first compound 10 µM) was 24.4%. For the same molecule, the viability, T/C (second compound 0.316 µM, first compound 0.0316 µM) was 44.8%, the viability, T/C (second compound 0.316 µM, first compound 0.1 µM) was 46.4% and the viability, T/C (second compound 0.316 µM, first compound 0.316 µM) was 39.4%. It also gave a viability, T/C (second compound 0.316 µM, first compound 1 µM) of 34.7%, a viability, T/C (second compound 0.316 µM, first compound 3.16 µM) of 32.8% and a viability, T/C (second compound 0.316 µM, first compound 10 µM) of 22.7%. For the same molecule, the viability, T/C (second compound 1 µM, first compound 0.0316 µM) was 42.9%, the viability, T/C (second compound 1 µM, first compound 0.1 µM) was 35.2% and the viability, T/C (second compound 1 µM, first compound 0.316 µM) was 34%. The viability, T/C (second compound 1 µM, first compound 1 µM) was 37.4%, the viability, T/C (second compound 1 µM, first compound 3.16 µM) was 25.3% and the viability, T/C (second compound 1 µM, first compound 10 µM) was 22.9%. It also gave a viability, T/C (second compound 3.16 µM, first compound 0.0316 µM) of 32.8%, a viability, T/C (second compound 3.16 µM, first compound 0.1 µM) of 37.4% and a viability, T/C (second compound 3.16 µM, first compound 0.316 µM) of 31.4%. It also gave a viability, T/C (second compound 3.16 µM, first compound 1 µM) of 26.8%, a viability, T/C (second compound 3.16 µM, first compound 3.16 µM) of 21.7% and a viability, T/C (second compound 3.16 µM, first compound 10 µM) of 19.2%. It also gave a viability, T/C (second compound 10 µM, first compound 0.0316 µM) of 25.4%, a viability, T/C (second compound 10 µM, first compound 0.1 µM) of 21.5% and a viability, T/C (second compound 10 µM, first compound 0.316 µM) of 20.9%. For the same molecule, the viability, T/C (second compound 10 µM, first compound 1 µM) was 24.8%, the viability, T/C (second compound 10 µM, first compound 3.16 µM) was 10.3% and the viability, T/C (second compound 10 µM, first compound 10 µM) was 8.1%.
